Measurements taken from US9944656B2, “Benzothiazole macrocycles as inhibitors of human immunodeficiency virus replication” (priority 2014, dated 2018).

Tested on: recombinant NL-RLuc virus (HIV, NL4-3 derived) in MT-2 cells
Experiment: Inhibition of HIV replication (NL-RLuc virus in MT-2 cells, luciferase readout)
Assay type: cell-based
Conditions: 5 days of incubation, 10% FBS
Excerpt: Inhibition of HIV Replication.
A recombinant NL-RLuc proviral clone was constructed in which a section of the nef gene from NL4-3 was replaced with the Renilla Luciferase gene. This virus is fully infectious and can undergo multiple cycles of replication in cell culture. In addition, the luciferous reporter provides a simple and easy method for quantitating the extent of virus growth and consequently, the antiviral activity of test compounds. The plasmid pNLRLuc contains the proviral NL-Rluc DNA cloned into pUC 18 at the PvuII site. The NL-RLuc virus was prepared by transfection of 293T cells with the plasmid pNLRLuc. Transfections were performed using the LipofectAMINE PLUS kit from Invitrogen (Carlsbad, Calif.) according to the manufacturer and the virus generated was titered in MT-2 cells. For susceptibility analyses, the titrated virus was used to infect MT-2 cells in the presence of compound, and after 5 days of incubation, cells were processed and quantitated for virus growth by the amount of expressed luciferase. […] Luciferase was quantitated using the Dual Luciferase kit from Promega (Madison, Wis.). Susceptibility of viruses to compounds was determined by incubation in the presence of serial dilutions of the compound. […]

| SMILES | EC50 |
| --- | --- |
| Cc1ccc2c(c1)-c1cccc(c1)-c1nc3cc(C)c([C@H](OC(C)(C)C)C(=O)O)c(c3s1)-c1ccc3c(c1)C(CCCC[C@H](C)O2)CCO3 (single isomer, unassigned) [Example 1] | 5620 nM |
| Cc1ccc2c(c1)-c1cccc(c1)-c1nc3cc(C)c([C@H](OC(C)(C)C)C(=O)O)c(c3s1)-c1ccc3c(c1)C(CCCC[C@H](C)O2)CCO3 (single isomer, unassigned) [Example 2] | 350 nM |
